Molecular target: T1, biotinidase (Homo sapiens, UniProt P43251)
T1 construct: from tissue
T1 sequence (P43251 22-523): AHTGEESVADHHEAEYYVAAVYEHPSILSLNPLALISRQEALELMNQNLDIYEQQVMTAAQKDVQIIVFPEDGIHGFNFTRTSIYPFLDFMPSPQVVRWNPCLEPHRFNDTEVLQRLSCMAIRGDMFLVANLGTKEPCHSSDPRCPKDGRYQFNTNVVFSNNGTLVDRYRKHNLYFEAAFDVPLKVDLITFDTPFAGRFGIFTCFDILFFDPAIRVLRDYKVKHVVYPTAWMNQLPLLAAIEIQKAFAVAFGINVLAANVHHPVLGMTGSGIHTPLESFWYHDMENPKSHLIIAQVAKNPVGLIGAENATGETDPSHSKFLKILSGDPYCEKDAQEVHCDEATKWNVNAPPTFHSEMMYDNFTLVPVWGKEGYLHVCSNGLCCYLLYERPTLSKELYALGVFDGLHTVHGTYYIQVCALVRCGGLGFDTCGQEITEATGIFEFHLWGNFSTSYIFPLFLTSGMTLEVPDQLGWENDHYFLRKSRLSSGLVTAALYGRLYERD
Assay: Biotinidase inhibitor experiment: MS9 anti-CD33 Fab in human serum with or without inhibitor, LC-MS
Assay type: biochemical
Settings: 1 mM in human serum, 4 h at 37° C.
Method: To verify that biotinidase, an enzyme found in the human body amongst other in human serum, causes the cleavage of the biotinamide bond an experiment was performed with a biotinidase inhibitor ((+) Biotin 4 Amidobenzoic Acid, Cayman, CAS. 102418-74-6). Therefore (+) Biotin 4 Amidobenzoic Acid was added at a concentration of 1 mM into the pre-incubation mix containing the human serum. As control no inhibitor was added. The anti-CD33 Fab with MS9 was pre-incubated for 4 hours at 37° C. Subsequently after the incubation the samples were purified via an IgG-CHI Affinity matrix as previously described.
FIG. 5A and FIG. 5B show biotinidase as causative agent for instability of linker in non-heat inactivated serum. Biotinylated (MS9) anti-CD33 FAbs were incubated in freshly prepared human serum for 4 h at 37° C. in the presence (left panel) or absence (right panel) of 1 mM Biotin 4-amidobenzoic acid.

With `O=C(CCCC[C@@H]1SC[C@@H]2NC(=O)N[C@@H]21)Nc1ccc(C(=O)[O-])cc1.[Na+]` [Biotin 4-amidobenzoic acid, (+) Biotin 4 Amidobenzoic Acid] the “effect of biotinidase inhibitor on biotinamide bond degradation” value was “protects the biotinamide bond from degradation”.

From patent publication US20230357313A1, “SERUM RESISTANT BIS-SULFHYDRYL SPECIFIC BIOTINYLATION REAGENT” (Miltenyi Biotec B.V. & Co. KG, priority 2022, published 2023)
